We go through three molecules from PMC3747596 (PLoS ONE, 2013).

Read-outs that look alike come from different tables or passages of the source.

The target in one series is β2 (Homo sapiens, UniProt P07550). Nature of the series: Radioligand displacement, β2. The format is binding. In general terms: Loss of bound radioactivity is the signal in a displacement assay; it reports binding, not function.
Series [1] concerns the target noradrenaline (norepinephrine) transporter (NET) (Homo sapiens, UniProt P23975). Nature of the series: Radioligand displacement, NET. The class given is binding.
The next series concerns the target T1, 5-HT2c (Homo sapiens, UniProt P28335).
T1 sequence (P28335 33-458): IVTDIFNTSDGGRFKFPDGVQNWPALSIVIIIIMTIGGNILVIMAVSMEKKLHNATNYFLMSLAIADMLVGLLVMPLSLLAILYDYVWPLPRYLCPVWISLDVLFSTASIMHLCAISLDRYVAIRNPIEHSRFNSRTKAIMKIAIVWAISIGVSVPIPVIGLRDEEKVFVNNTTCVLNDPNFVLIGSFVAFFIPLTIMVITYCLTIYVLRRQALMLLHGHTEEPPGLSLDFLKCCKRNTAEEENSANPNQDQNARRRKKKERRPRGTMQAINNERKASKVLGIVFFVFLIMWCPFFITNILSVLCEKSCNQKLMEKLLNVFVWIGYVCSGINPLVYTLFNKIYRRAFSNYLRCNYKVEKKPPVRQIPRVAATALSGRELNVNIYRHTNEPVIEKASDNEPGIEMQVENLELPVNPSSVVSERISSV
Nature of the series: Radioligand displacement, 5-HT2c. The format is binding.

The next series concerns the target T2, α1B (Homo sapiens, UniProt P35368).
T2 sequence (P35368 1-520): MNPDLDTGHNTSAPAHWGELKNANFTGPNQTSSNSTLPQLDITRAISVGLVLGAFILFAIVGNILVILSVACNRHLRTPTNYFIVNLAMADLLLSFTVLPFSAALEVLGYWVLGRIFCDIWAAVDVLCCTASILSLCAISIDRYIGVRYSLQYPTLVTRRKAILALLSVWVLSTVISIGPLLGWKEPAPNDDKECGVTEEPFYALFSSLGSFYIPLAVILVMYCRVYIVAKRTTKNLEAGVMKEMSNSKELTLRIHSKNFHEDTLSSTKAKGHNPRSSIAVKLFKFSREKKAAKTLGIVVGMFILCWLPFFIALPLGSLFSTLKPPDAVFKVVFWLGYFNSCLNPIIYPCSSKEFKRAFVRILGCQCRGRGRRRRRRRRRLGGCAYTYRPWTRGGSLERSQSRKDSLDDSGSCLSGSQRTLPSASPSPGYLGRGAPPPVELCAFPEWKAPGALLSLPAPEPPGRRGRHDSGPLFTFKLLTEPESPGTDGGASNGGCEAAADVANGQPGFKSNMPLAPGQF
Nature of the series: Radioligand displacement, α1B. The class given is binding.

The target of another series is β3 (Homo sapiens, UniProt P13945). As to the kind of experiment: Radioligand displacement, β3. The format is binding.
Chain of β3 (P13945 whole entry): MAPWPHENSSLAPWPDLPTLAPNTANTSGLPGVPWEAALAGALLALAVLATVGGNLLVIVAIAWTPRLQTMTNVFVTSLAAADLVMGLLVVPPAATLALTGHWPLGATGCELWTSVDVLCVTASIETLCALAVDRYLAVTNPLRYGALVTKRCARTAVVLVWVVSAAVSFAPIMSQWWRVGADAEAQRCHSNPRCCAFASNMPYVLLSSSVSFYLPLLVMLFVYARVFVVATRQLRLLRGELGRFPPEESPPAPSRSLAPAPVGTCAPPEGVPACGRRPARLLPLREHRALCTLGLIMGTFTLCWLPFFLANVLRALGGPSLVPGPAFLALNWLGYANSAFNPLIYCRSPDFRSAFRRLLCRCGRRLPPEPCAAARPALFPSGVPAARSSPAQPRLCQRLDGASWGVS
The next series addresses T3, D4 (Homo sapiens, UniProt P21917).
T3 sequence (P21917 1-419): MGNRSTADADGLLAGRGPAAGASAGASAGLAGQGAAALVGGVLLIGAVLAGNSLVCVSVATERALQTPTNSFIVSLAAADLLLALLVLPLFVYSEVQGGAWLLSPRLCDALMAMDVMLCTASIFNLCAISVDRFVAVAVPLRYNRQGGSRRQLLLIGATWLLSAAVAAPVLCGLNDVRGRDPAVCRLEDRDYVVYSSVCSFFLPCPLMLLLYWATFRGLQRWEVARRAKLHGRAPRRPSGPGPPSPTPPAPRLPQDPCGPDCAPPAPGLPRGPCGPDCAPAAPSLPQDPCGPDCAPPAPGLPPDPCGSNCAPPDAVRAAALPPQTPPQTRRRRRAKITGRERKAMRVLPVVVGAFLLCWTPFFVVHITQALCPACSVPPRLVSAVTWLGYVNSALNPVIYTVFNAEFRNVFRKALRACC
Nature of the series: Radioligand displacement, D4. The class given is binding.

Another series addresses 5-HT2b (Homo sapiens, UniProt P41595). Nature of the series: Radioligand displacement, 5-HT2b. The class given is binding.
Series [2] concerns human permeability glycoprotein (P-gp). The conditions noted are these: cited from earlier work.
The next series deals with T4, 5-HT3 (Homo sapiens, UniProt P46098).
T4 sequence (P46098 24-478): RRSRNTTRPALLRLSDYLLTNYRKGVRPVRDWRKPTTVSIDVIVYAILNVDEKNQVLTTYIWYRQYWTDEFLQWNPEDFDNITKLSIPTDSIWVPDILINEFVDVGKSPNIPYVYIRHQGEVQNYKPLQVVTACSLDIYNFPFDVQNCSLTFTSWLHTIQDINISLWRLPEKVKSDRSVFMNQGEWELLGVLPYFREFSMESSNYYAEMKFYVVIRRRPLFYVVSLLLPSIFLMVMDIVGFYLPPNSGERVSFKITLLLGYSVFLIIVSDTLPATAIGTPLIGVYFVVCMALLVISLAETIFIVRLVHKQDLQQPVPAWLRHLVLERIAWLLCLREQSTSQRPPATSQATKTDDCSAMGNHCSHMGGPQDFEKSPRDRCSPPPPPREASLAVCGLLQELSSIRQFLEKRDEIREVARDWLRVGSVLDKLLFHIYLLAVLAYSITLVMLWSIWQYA
Nature of the series: Radioligand displacement, 5-HT3. The class given is binding.

For another series, the target named is 5-HT5a (Homo sapiens, UniProt P47898). As to the kind of experiment: Radioligand displacement, 5-HT5a. The format is binding.
Chain of 5-HT5a (P47898 whole entry): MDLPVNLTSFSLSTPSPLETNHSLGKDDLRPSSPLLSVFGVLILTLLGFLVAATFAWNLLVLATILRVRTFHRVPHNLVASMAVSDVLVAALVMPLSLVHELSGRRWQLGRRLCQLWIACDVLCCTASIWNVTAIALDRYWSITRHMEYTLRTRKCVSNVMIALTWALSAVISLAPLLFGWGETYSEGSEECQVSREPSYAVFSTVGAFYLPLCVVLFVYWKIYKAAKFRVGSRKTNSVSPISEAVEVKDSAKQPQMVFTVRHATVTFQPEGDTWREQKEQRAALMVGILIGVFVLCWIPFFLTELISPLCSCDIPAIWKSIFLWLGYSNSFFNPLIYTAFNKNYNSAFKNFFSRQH
The next series has as its target 5-HT6 (Homo sapiens, UniProt P50406). As to the kind of experiment: Radioligand displacement, 5-HT6. The format is binding.
For another series, the system named is mice. The conditions noted are these: mice, cited from earlier work.
Series [3] concerns the target N-methyl-D-aspartate (NMDA) receptor. Also on record: method as in PMID 7681005. The conditions noted are these: [3H]CGP-39,653, glutamate site; cited from earlier work.
The mark [4] stands for this setting: Ki, [3H] radioligand Prazosin, Human, Cloned.
[5] abbreviates: [3H] radioligand CGP12177, Human, Cloned, read-out: Ki.
The mark [6] stands for this setting: [3H] radioligand LSD, Human, Cloned, read-out: Ki.

Chain of β2 (P07550 whole entry): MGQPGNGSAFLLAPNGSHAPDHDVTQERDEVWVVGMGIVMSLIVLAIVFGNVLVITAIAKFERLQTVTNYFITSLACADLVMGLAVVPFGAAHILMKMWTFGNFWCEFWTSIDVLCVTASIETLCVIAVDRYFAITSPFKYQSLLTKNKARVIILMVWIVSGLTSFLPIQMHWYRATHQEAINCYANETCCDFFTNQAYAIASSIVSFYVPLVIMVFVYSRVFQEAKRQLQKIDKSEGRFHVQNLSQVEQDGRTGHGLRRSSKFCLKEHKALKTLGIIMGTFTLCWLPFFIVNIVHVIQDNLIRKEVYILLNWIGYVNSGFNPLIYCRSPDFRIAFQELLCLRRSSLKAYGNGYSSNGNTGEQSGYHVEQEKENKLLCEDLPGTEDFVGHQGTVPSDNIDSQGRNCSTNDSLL
Chain of 5-HT6 (P50406 whole entry): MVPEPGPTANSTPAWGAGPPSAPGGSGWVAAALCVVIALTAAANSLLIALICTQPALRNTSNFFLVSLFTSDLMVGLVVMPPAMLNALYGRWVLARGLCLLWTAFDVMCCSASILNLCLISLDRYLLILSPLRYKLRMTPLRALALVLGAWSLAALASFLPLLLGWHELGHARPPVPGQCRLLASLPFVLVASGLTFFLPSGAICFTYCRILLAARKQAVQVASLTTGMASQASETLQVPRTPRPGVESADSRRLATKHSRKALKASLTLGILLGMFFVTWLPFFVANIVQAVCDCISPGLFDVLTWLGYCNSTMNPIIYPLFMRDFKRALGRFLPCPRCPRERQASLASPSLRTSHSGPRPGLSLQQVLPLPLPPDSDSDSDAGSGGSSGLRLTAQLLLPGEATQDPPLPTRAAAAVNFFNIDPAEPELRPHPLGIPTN
Chain of noradrenaline (norepinephrine) transporter (NET) (P23975 whole entry): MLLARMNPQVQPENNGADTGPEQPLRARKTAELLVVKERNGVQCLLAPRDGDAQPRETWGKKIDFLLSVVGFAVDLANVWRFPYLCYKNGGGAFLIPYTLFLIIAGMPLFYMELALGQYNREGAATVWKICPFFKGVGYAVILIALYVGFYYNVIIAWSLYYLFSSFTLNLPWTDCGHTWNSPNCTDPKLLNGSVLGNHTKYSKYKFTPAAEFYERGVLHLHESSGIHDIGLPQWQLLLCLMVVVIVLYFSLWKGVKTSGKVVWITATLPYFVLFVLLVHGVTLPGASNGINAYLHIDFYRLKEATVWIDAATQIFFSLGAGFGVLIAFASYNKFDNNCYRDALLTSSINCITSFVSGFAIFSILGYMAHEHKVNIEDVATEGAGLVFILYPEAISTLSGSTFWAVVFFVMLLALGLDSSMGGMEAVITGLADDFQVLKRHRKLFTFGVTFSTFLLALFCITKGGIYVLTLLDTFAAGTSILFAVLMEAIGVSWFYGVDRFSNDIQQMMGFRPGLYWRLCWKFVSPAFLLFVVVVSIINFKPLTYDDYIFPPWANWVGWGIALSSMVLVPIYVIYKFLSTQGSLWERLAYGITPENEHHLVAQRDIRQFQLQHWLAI
Chain of 5-HT2b (P41595 whole entry): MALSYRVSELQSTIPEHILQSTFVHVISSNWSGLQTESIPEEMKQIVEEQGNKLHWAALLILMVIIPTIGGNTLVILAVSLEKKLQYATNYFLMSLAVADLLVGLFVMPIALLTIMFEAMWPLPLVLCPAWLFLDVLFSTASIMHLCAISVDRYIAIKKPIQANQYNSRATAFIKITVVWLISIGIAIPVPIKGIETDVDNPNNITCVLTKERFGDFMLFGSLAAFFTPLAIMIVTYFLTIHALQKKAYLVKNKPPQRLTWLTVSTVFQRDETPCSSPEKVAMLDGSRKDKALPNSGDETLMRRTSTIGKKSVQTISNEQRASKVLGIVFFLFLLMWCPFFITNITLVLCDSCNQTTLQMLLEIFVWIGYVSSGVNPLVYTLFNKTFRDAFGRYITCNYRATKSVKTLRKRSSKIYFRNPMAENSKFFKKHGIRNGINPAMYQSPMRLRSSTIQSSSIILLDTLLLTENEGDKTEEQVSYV

Regarding `N=C(N)Nc1ccc2[nH]c3c(c2c1)C[C@@]1(O)[C@H]2Cc4ccc(O)c5c4[C@@]1(CCN2CC1CC1)[C@H]3O5` [GNTI, 5′-guanidinonaltrindole], the Ki at β2 is at least 10 µM; in series [1] it was at least 10 µM; at 5-HT2c, at least 10 µM; on α1B (setting [4]), 8.9 µM; on α1B (Ki, binding curve File S1 (GNTI page), Alpha1B Receptor, [125I]HEAT (0.05 nM)) it was 8.91 µM; at β3, at least 10 µM. For the same molecule, the Ki at D4, on 5-HT2b, at 5-HT3, at 5-HT5a and on 5-HT6 was at least 10 µM throughout. Further, in [2], the “substrate of human P-gp” value is on record as “not substrates”. Besides, the “time to ataxia, convulsions and death” value with mice (30 mg/kg i.p.) is at most 18 min. The toxic signs entry in the series with mice (30 mg/kg i.p.) was “ataxia, convulsions and death”.
Regarding `CC(C)[C@@H](CN1CC[C@@](C)(c2cccc(O)c2)[C@@H](C)C1)NC(=O)[C@H]1Cc2ccc(O)cc2CN1` [JDTic], the Ki at β2 (setting [5]) is at least 10 µM; in series [1] (NET, versus [3H]nisoxetine (Table 1), read-out: K i), 0.054 µM; at 5-HT2c ([3H] radioligand Mesulergine, Human, Cloned, read-out: Ki), at least 10 µM; at α1B ([3H] radioligand Prazosin, Human, Cloned, read-out: Ki), 4.81 µM; at α1B (binding curve File S1 (JDTic page), Alpha1B Receptor, [125I]HEAT (0.12 nM), read-out: Ki), 4.81 µM; on α1B (α1B, radioligand displacement (Table 1), read-out: K i), 4.8 µM. Moreover, the Ki on β3 (setting [5]) was at least 10 µM; at D4 ([3H] radioligand N-Methylspiperone, Human, Cloned, read-out: Ki) it was at least 10 µM; at 5-HT2b (setting [6]) it was at least 10 µM; on 5-HT3 ([3H] radioligand LY278584, Human, Cloned, read-out: Ki), at least 10 µM; at 5-HT5a (setting [6]), at least 10 µM; at 5-HT6 (setting [6]), at least 10 µM. In addition, the toxic signs entry in the series with mice (100 mg/kg) is recorded as “no convulsions or deaths”.
On to `Oc1ccc2c3c1O[C@H]1c4[nH]c5c(c4C[C@@]4(O)[C@@H](C2)N(CC2CC2)CC[C@]314)C[C@@]1(O)[C@H]2Cc3ccc(O)c4c3[C@@]1(CCN2CC1CC1)[C@H]5O4` [nor-BNI, Nor-binaltorphimine], for which the Ki on β2 is at least 10 µM; in series [1], at least 10 µM; in series [3], over 1 µM; on 5-HT2c, at least 10 µM; on α1B (setting [4]) it was at least 10 µM; at β3 it was at least 10 µM. The Ki on D4, at 5-HT2b, at 5-HT3, at 5-HT5a and on 5-HT6 was at least 10 µM in each case. The “substrate of human P-gp” value in [2] is on record as “not substrates”. In the series with mice (100 mg/kg), the toxic signs result was “no convulsions or deaths”.
